Assay results as given in patent US11766412B2, “Methods of treating or alleviating adenylosuccinatelyase (ADSL) deficiency using spermidine or a pharmaceutically acceptable salt of spermidine” (GENEHEAL BIOTECHNOLOGY CO., LTD., priority 2016, dated 2023).
Non-standard residues stand in square brackets, D forms with d. Residues, ends and D or L forms follow the SMILES beside them. Arg(NO2) = N=C(NCCC[C@H](N)C(=O)O)N[N+](=O)[O-]; Dab = NCC[C@H](N)C(=O)O

system: SAICAR synthetase; test: Inhibition of SAICAR accumulation, biochemical enzyme activity experiments and cell biology experiments
Excerpt: On the basis of the above results, the crystal structure conformations in SAICAR synthetases of Saccharomyces cerevisiae (PDB: 2CNQ) and Escherichia coli (PDB: 2GQS) are used as receptor structures for calculating and screening, since there is no conformation which can bind CAIR in human PAICS crystal structure, and no catalytic conformation formed in the catalytic region, and the results obtained by calculation are not reliable. 4661 of small molecule drugs in the DrugBank (www.drugbank.ca) are calculated and screened by using the ligand fit module of Discovery studio. The conformations are ordered according to dock scores, and then the first 500 conformations are selected. After eliminating the repetitions, key screening results are obtained. In addition, the inhibition ratios of the compounds against SAICAR accumulation are confirmed by biochemical enzyme activity experiments and cell biology experiments, as shown in Table 1.

Row | Molecule | Inhibition ratios against SAICAR accumulation [%]
1 | NC[C@H]1O[C@H](O[C@H]2[C@H](O)[C@@H](O)[C@H](N)C[C@@H]2N)[C@H](N)[C@@H](O)[C@@H]1O [D1304808, Neamine] | 37.11
2 | C[C@H](NC(=NCC(=O)O)Nc1ccc(C#N)cc1)c1ccccc1 [DB04778, SC45647] | 11.29
3 | N[C@@H](CCC(=O)N[C@@H](CSCc1cccc(I)c1)C(=O)NCC(=O)O)C(=O)O [DB04341, S-(3-Iodobenzyl)Glutathione] | 9.9
4 | Cc1ncc(COP(=O)(O)O)c(CNC(C(C)C)P(=O)(O)O)c1O (stereo not drawn) [DB03433, {[(3-Hydroxy-2-Methyl-5-Phosphonooxymethyl-Pyridin-4-ylmethyl)-Amino]-2-Methyl-Propyl}-Phosphonic Acid] | 53.38
5 | N-ethyl-N[3-(propylamino)propyl]propane-1,3-diamine [DB04633] | 12.798
6 | CC(N)C(CCCCCC(=O)O)NC(=O)O (stereo not drawn) [DB03624, 7-(Carboxyamino)-8-Amino-Nonanoic Acid] | 51.9
7 | N[C@@H](CCCCNC(C(=O)O)C(=O)O)C(=O)O [DB01815, Nz-(Dicarboxymethyl)Lysine] | 22.68
8 | NC(=O)[C@@H]1C[C@@H](NC(=O)[C@@H](N)CCCN=C(N)N[N+](=O)[O-])CN1 [DB02077, L-N(Omega)-Nitroarginine-(4r)-Amino-L-Proline Amide] | 71.8
9 | C=C[C@@H](NC(=O)[C@H](CS)NC(=O)CCC[C@H](N)C(=O)O)C(=O)O [DB03427, Delta-(L-Alpha-Aminoadipoyl)-L-Cysteinyl-D-Vinylglycine] | 13.3
10 | CC(N)C(CCCCCC(=O)O)CC(=O)O (stereo not drawn) [DB02941, 3-(1-Aminoethyl)Nonanedioic Acid] | 69.8
11 | N[C@@H](CCC(=O)N[C@@H](CS(=O)(=O)O)C(=O)NCC(=O)O)C(=O)O [DB03003, Glutathione Sulfonic acid] | 38
12 | C[C@@H](NC(=O)CCCC[C@H](NC(=O)CN)C(=O)O)C(=O)O [DB03927, Glycyl-L-Alpha-Amino-Epsilon-Pimelyl-D-Alanine] | 29.859
13 | Nc1ncnc2c1ncn2[C@@H]1O[C@H](COP(=O)(O)OC(=O)[C@@H](N)CC(=O)O)[C@@H](O)[C@H]1O [DB01895, Aspartyl-Adenosine-5′-Monophosphate] | 22.918
14 | N[C@@H](CCC(=O)N[C@@H](CS(=O)O)C(=O)NCC(=O)O)C(=O)O [DB04700, GLUTATHIONE SULFINATE] | 9.98
15 | NCC[C@H](NC(=O)[C@@H](N)CCCN=C(N)N[N+](=O)[O-])C(N)=O [DB01821, L-N(Omega)-Nitroarginine-2,4-L-Diaminobutyric Amide] (H-[Arg(NO2)]-[Dab]-NH2) | 57.11
16 | NC(CC1=CC(=NC2CC2c2ccccc2)C(O)=CC1=O)C(=O)O (stereo not drawn) [DB01657, 2-Amino-3-[4-Hydroxy-6-Oxo-3-(2-Phenyl-Cyclopropylimino)-Cyclohexa-1,4-Dienyl]-Propionic acid] | 22.9
17 | NCCC[C@H](NC(=O)CCC(=O)O)C(=O)O [DB03582, N-2-Succinylornithine] | 19.97
18 | NC(CSC1C=C(C(N)C(=O)O)ON1)C(=O)O (stereo not drawn) [DB01974, 2-Amino-3-[5-(Amino-Carboxy-Methyl)-2,3-Dihydro-Isoxazol-3-Ylsulfanyl]-Propionic Acid] | 66.711
19 | N[C@@H](CSC1CC(CC(=O)O)ON1N)C(=O)O (stereo partly drawn) [DB04323, 2-Amino-3-(Cystein-S-Yl)-Isoxazolidin-5-Yl-Acetic acid] | 56.68
20 | O=c1[nH]cnc2c([C@@H]3N[C@H](COP(=O)(O)O)[C@@H](O)[C@H]3O)c[nH]c12 [DB02075, (1s)-1-(9-Deazahypoxanthin-9-yl)-1,4-Di Deoxy-1,4-Imino-D-Ribitol-5-Phosphate] | 28.5

Row | Molecule | Inhibition ratios against SAICAR accumulation [%]
21 | Cc1ncc(COP(=O)(O)O)c(CNCC(=O)O)c1O [DB02824, N-Pyridoxyl-Glycine-5-Monophosphate] | 77.97
22 | N[C@@H](CCC(=O)N[C@@H](CSCc1ccccc1)C(=O)NCC(=O)O)C(=O)O [DB03602, S-Benzyl-Glutathione] | 36.5
23 | CN(CC[C@H](N)CC(=O)N[C@H]1C=C[C@H](N2C=C[C@@](N)(O)NC2=O)O[C@@H]1C(=O)O)C(=N)N [DB04649, TETRAHEDRAL INTERMEDIATE OF BLASTICIDIN S] | 20.09
24 | Cc1ncc(COP(=O)(O)O)c(CN[C@H](CCC(=O)O)C(=O)O)c1O [DB04762, N-PYRIDOXYL-D-GLUTAMIC ACID-5′-MONOPHOSPHATE] | 27.7
25 | NCCCCCCNCCCCCCN [DB04684, BIS(HEXAMETHYLENE)TRIAMINE] | 9.3
26 | CC(N)C(CCCCCC(=O)O)NC(=O)OP(=O)(O)O (stereo not drawn) [DB02927, Mixed Carbamic Phosphoric Acid Anhydride of 7,8-Diaminononanic acid] | 22.8
27 | OCC(OS(O)(O)O)[C@H](O)CN1C[C@@H](O)[C@H](O)[C@H]1CO (stereo partly drawn) [DB02492, Ghavamiol] | 17.4
28 | NCCC[C@H](NC(=O)CP(=O)(O)O)C(=O)O [DB02011, N-(phosphonoacetyl)-L-Ornithine] | 41.85
29 | CSC[C@H](NC(=O)CC[C@H](N)C(=O)O)C(=O)NCC(=O)O [DB04701, S-METHYL-GLUTATHIONE] | 40.1
30 | Cc1ccc(OCC(=CC=O)Nc2cc(C[C@H](N)C(=O)O)c(O)cc2O)cc1 [DB02537, 2 -Hydroxy-5-({1-[(4-Methylphenoxy)Methyl]-3-Oxoprop-1-Enyl}Amino)-L-Tyrosin] | 71.1
31 | Cc1ncc(COP(=O)(O)O)c(CN[C@@H](CCC(=O)O)C(=O)O)c1O [DB01813, Pyridoxyl-Glutamic Acid-5′-Monophosphate] | 40.9
32 | NC(=NCCCC(N)C(=O)O)NC(CC(=O)O)C(=O)O (stereo not drawn) [DB02267, Argininosuccinate] | 86.81
33 | N[C@@H](CCC(=O)N[C@@H](CSCO)C(=O)NCC(=O)O)C(=O)O [DB04153, S-Hydroxymethyl Glutathione] | 58
34 | Cc1cccc(C2=C(c3ccc4ncccc4n3)CNN2)n1 [DB04434, Naphthyridine Inhibitor] | 22.98
35 | NC(CCCCN[C@@H](CCC(=O)O)C(=O)O)C(=O)O (stereo partly drawn) [DB04207, N-(5-Amino-5-Carboxypentyl)-Glutamic Acid] | 65.69
36 | N[C@@H](Cc1cc(N=Nc2ccccn2)c(O)cc1O)C(=O)O [DB01634, 2-Oxy-4-Hydroxy-5-(2-Hydrazinopyridine)Phenylalanine] | 23.7
37 | N[C@@H](CCC(=O)N[C@@H](CSCc1ccc([N+](=O)[O-])cc1)C(=O)NCC(=O)O)C(=O)O [D1303686, S-(P-Nitrobenzyl)Glutathione] | 63.83
38 | NCCCCNCCCN [DB03566, Spermidine] | 68.98
39 | CN(C)c1ncnc2c1ncn2[C@@H]1O[C@H](COP(=O)(O)O)[C@@H](N)[C@H]1O [DB04602, PUROMYCIN AMINONUCLEOSIDE-5′-MONOPHOSPHATE] | 12.9
